Measurements reported in patent US4769483A, “Cycloalkyl-substituted 4-aminophenyl derivatives and process for their preparation” (Farmitalia Carlo Erba, S.p.A., priority 1985, dated 1988).

Columns and labels:
[1] = test system: aromatase; conditions: literature reports; cited from earlier work
[2] = target: T1, human placental aromatase (Homo sapiens, UniProt P11511); experiment: Inhibition of human placental aromatase in vitro (3H2O release from 4-[1β,2β-3H]androstene-3,17-dione); format: biochemical; conditions: for IC50: microsomal fraction of human placental tissue, 50 nM 4-[3H]androstenedione, 100 μM NADPH, 0.05 mg microsomal proteins, 37° C., pH 7.5, 15 minutes; for Relative potency: versus aminoglutethimide (= 1 by definition)
T1 construct: the enzyme system was isolated from the microsomal fraction of human placental tissue; from tissue; host or cells: human placenta, microsomal fraction
T1 sequence (P11511 1-503): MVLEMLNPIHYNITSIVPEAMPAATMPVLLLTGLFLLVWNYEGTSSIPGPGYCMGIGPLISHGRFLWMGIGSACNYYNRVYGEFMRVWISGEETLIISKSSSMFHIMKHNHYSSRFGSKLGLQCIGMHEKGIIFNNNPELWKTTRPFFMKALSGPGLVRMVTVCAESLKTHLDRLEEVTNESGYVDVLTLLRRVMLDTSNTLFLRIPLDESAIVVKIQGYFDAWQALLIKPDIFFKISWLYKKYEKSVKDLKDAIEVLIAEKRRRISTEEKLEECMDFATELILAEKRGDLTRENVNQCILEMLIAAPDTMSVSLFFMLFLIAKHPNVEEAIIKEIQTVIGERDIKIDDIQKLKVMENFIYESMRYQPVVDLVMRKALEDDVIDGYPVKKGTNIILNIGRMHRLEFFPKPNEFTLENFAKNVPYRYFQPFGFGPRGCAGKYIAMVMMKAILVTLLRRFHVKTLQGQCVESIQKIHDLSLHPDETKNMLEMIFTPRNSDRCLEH
Protocol: The assay of the aromatase inhibition in vitro was carried out as follows: the enzyme system was isolated from the microsomal fraction of human placental tissue according to standard procedure. […] All incubations were carried out in a shaking water bath at 37° C. in air in 10 mM potassium phosphate buffer, pH 7.5, which contained 100 mM KCl, 1 mM EDTA and 1 mM dithiothreitol.
The experiments were carried out in 1 ml incubation volume containing 50 nM 4-[^3 H]androstenedione, various concentrations of the inhibitors, 100 μM NADPH and 0.05 mg of microsomal proteins. After 15 minutes of incubation the reaction was stopped by the addition of choroform (5 ml).
After centrifugation at 1500 ×g for 5 minutes aliquots (0.5 ml) were removed from the water phase for determination of ^3 H2 O formed.

| IC50 [2] | Relative potency [2] | Compound | aromatase-inhibiting action (in words) [1] |
| --- | --- | --- | --- |
| 1.22 µM | 1.7 | Nc1ccc(C2CCCCC2)cc1 [4-cyclohexylaniline] | more or less selective aromatase-inhibiting action |
|  |  | CCC1(c2ccncc2)CCC(=O)NC1=O (centres unmarked) [4-pyridyl-3-ethyl-2,6-piperidinedione] | more or less selective aromatase-inhibiting action |
| 0.1 µM | 21.2 | C[C@@H](C(=O)OC1CCCCC1)c1ccc(N)cc1 [FCE 24328, cyclohexyl 2-(R)-2-(4'-aminophenyl)propionate] |  |
| 0.13 µM | 16.3 | C[C@@H](C(=O)NC1CCCCC1)c1ccc(N)cc1 [FCE 24786, N-cyclohexyl-2-(R)-2-(4'-aminophenyl)propanamide] |  |
